From patent EP0114577A1, “New pharmaceutical composition” (MAGIS FARMACEUTICI S.p.A., priority 1983, dated 1984)

Experiment: Serum levels of radioactivity after administration of 14C-CDPC (liposomal suspension vs aqueous solution) to rats
Conditions: rat, in vivo, 200 mg/kg
Excerpt: Surprising results which are obtained orally administering carried-by-liposomes CDPC instead of utilizing hitherto known pharmaceutical compositions for oral administration are confirmed by data obtained by carrying out tests hereinbelow described. During the tests as pharmaceutical composition containing carried-by-liposomes CDPC, CDPC carried by means of a liposome having purified phosphatidylcholine from soybean as hydrophobic phase was utilized; said pharmaceutical composition will be called hereinafter Lip. CDPC for the sake of brevity. Moreover, during the hereinbelow describ ed tests, a marked CDPC was utilized having an atom of ^14C introduced into the methyl group of the cholinic side of the molecule. The radioactivity resulted to be about 0.1 µ Curie/mg pure CDPC.
The suspension of Lip. CDPC containing ^14C-CDPC, which was obtained as described in Example No. 1, and a ' reference aqueous solution of ^14C-CDPC were administered by gavage to rats of average weight of 200 g at the doses of 200 mg/Kg (referred to pure CDPC).
Blood abstractions were carried out at various intervals of time and, 24 hours after the start of test, the animals were sacrificed. Amounts of absorbed active ingredient were calculated from radioactivity measures on serum; said amounts, as reported in following Tables (1 - 2), were higher on the average in tests carried out employing Lip. CDPC in comparison with controls with pure CDPC in aqueous solution. It is apparent from the analysis of Tables that, in the described experimental conditions, there is a valuable absorption of CDPC after oral administration. The amount of said absorption and pertinent hematic concentrations are remarkably higher when Lip. CDPC, which is object of the present invention, is used: for example at the 6th hour the serum concentration of CDPC for Lip. CDPC was much higher than concentration found for CDPC administered in aqueous solution.

In the case of `C[N+](C)(C)CCOP(=O)(O)OP(=O)([O-])OC[C@H]1O[C@@H](n2ccc(N)nc2=O)[C@H](O)[C@@H]1O` [CDPC, cytidine diphosphate choline ester], the Serum concentration (0 min) is reported as 0 CPM x 10^-3, the Serum concentration (60 min) is reported as 0.3 CPM x 10^-3 and the Serum concentration (120 min) is reported as 1 CPM x 10^-3. The Serum concentration (300 min) was 2.6 CPM x 10^-3, the Serum concentration (600 min) was 4 CPM x 10^-3 and the Serum concentration (900 min) was 4 CPM x 10^-3.
